Experimental data as given in patent US20160158200A1, “Combinations of Hepatitis C Virus Inhibitors” (priority 2013, published 2016).

Test system: HCV genotype-1a variant with glutamine 30 changed to glutamate in the NS5A protein
Assay type: cell-based
Details: test compound titrated with BMS-790052 fixed at 200 nM; genotype 1a Q30E replicon
Outline: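 Synergy was assessed by combining several fixed amounts of an NS5A-targeting compound with a titration of the second compound of interest.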

Row | Structure (SMILES) | Fold-Synergistic 1a (Q30E)
1 | COC1(C(=O)N[C@H](c2nc(-c3ccc(-c4ccc(-c5c[nH]c([C@@H](NC(=O)C6(OC)CC6)C(C)(C)C)n5)cc4)cc3)c[nH]2)C(C)(C)C)CC1 [Compound P-27] | >100 fold
2 | CC(C)N(C(=O)C(=O)NC(c1nc(-c2ccc(-c3ccc(-c4c[nH]c(C(NC(=O)C(=O)N(C(C)C)C5CC5)C5CC5)n4)cc3)cc2)c[nH]1)C1CC1)C1CC1 [Compound L-36] | >100 fold
3 | CC(C)[C@H](NC(=O)c1ccccc1F)c1nc(-c2ccc(-c3ccc(-c4c[nH]c([C@@H](NC(=O)c5ccccc5F)C(C)C)n4)c(F)c3)cc2)c[nH]1.O=C(O)C(F)(F)F [Compound N-92] | >100 fold
4 | CC(C)[C@H](NC(=O)C1(C(C)O)CC1)c1ncc(-c2ccc(-c3ccc(-c4cnc([C@@H](NC(=O)C5(C(C)O)CC5)C(C)C)n4C)cc3)cc2)n1C (single isomer, unassigned) [Compound B-204] | >10 fold
5 | CN(C(=O)C(C)(C)C)[C@H](c1ncc(-c2ccc(-c3ccc(-c4cnc([C@@H](N(C)C(=O)C(C)(C)C)C(C)(C)C)[nH]4)cc3)cc2)[nH]1)C(C)(C)C [Compound B-207] | <10 fold
6 | CC(C)(C)[C@H](NC(=O)C1(CO)CCC(F)(F)CC1)c1nc(-c2ccc(-c3ccc(-c4c[nH]c([C@@H](NC(=O)C5(CO)CCC(F)(F)CC5)C(C)(C)C)n4)cc3)cc2)c[nH]1 [Compound P-37] | >100 fold
7 | CC(C)[C@H](NC(=O)c1cnccn1)c1ncc(-c2ccc(-c3ccc(-c4cnc([C@@H](NC(=O)c5cnccn5)C(C)C)[nH]4)cc3)cc2)[nH]1 [Compound S-15] | >10 fold
8 | CN1CCN(C(=O)C(=O)N[C@H](c2nc(-c3ccc(-c4ccc(-c5c[nH]c([C@@H](NC(=O)C(=O)N6CCN(C)CC6)C(C)(C)C)n5)cc4)cc3)c[nH]2)C(C)(C)C)CC1 [Compound W-35] | >100 fold
9 | CC(C)(C)[C@H](NC(=O)[C@@]1(C)CCC(F)(F)CO1)c1nc(-c2ccc(-c3ccc(-c4c[nH]c([C@@H]5CCCN5C(=O)c5nccc6c(Cl)cccc56)n4)cc3)cc2)c[nH]1 [Compound Y-85, (R)—N—((S)-1-(4-(4′-(2-((S)-1-(5-chloroisoquinoline-1-carbonyl)pyrrolidin-2-yl)-1H-imidazol-4-yl)-[1,1′-biphenyl]-4-yl)-1H-imidazol-2-yl)-2,2-dimethylpropyl)-5,5-difluoro-2-methyltetrahydro-2H-pyran-2-carboxamide] | >100 fold
10 | O=C(N1CCC(F)(F)CC1)N1CCC[C@H]1c1ncc(-c2ccc(-c3ccc(-c4cnc([C@@H]5CCCN5C(=O)N5CCC(F)(F)CC5)[nH]4)cc3)cc2)[nH]1 [Compound P-131] | >100 fold
11 | O=C(NC(c1nc(-c2ccc(-c3ccc(-c4c[nH]c(C(NC(=O)C5CCC(F)(F)CC5)C5(C(F)(F)F)CC5)n4)cc3)cc2)c[nH]1)C1(C(F)(F)F)CC1)C1CCC(F)(F)CC1.O=C(O)C(F)(F)F (single isomer, unassigned) [Compound N-109B] | >100 fold
12 | CC(C)(C)[C@H](NC(=O)c1ccc(Cl)s1)c1nc(-c2ccc(-c3ccc(-c4c[nH]c([C@@H](NC(=O)c5ccc(Cl)s5)C(C)(C)C)n4)cc3)cc2)c[nH]1 [Compound N-65] | >100 fold
13 | CC(C)(C)OC(=O)N1CC(F)(F)C[C@H]1C(=O)N[C@H](c1nc(-c2ccc(-c3ccc(-c4c[nH]c([C@@H](NC(=O)[C@@H]5CC(F)(F)CN5C(=O)OC(C)(C)C)C(C)(C)C)n4)cc3)cc2)c[nH]1)C(C)(C)C [Compound W-88] | >100 fold
14 | COCC(NC(=O)C(=O)N1CCC(F)(F)CC1)c1nc(-c2ccc(-c3ccc(-c4c[nH]c(C(COC)NC(=O)C(=O)N5CCC(F)(F)CC5)n4)cc3)cc2)c[nH]1 [Compound L-103] | >10 fold
